Legend:
ABUTH [1] = assay: Herbicidal pre-emergence action (Table A1); type: in vivo, Abutilon theophrasti; details: application rate 1280 g/ha; visual grading after ca. 3 weeks vs untreated controls (100% = plants have died off, 0% = as control plants)
How it was run: (§1)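 For this pre-emergence setup, sandy loam pots received seeds of one monocot and one dicot weed species each. The seeds were then covered with soil.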

ECHCG [2] = assay: Herbicidal pre-emergence action (Table A2); type: in vivo, Echinochloa crus-galli; details: visual grading after ca. 3 weeks
How it was run: as §1

LOLRI [3] = assay: Herbicidal pre-emergence action (Table A3); type: in vivo, Lolium rigidum; details: visual grading after ca. 3 weeks
How it was run: as §1

MATIN [4] = assay: Herbicidal pre-emergence action (Table A4); type: in vivo, Matricaria inodora; details: visual grading after ca. 3 weeks
How it was run: as §1

SETVI [5] = assay: Herbicidal pre-emergence action (Table A5); type: in vivo, Setaria viridis; details: visual grading after ca. 3 weeks
How it was run: as §1

STEME [6] = assay: Herbicidal pre-emergence action (Table A6); type: in vivo, Stellaria media; details: application rate 320 g/ha; visual grading after ca. 3 weeks
How it was run: as §1

POAAN [7] = assay: Herbicidal pre-emergence action (Table A7); type: in vivo, Poa annua; details: application rate 320 g/ha, visual grading after ca. 3 weeks
How it was run: as §1

AMARE [8] = assay: Herbicidal pre-emergence action (Table A8); type: in vivo, Amaranthus retroflexus; details: visual grading after ca. 3 weeks vs untreated controls (100% = plants have died off, 0% = as control plants)
How it was run: as §1

ALOMY [9] = assay: Herbicidal pre-emergence action (Table A9); type: in vivo, Alopecurus myosuroides; details: application rate 1280 g/ha; visual grading after ca. 3 weeks
How it was run: as §1

KCHSC [10] = assay: Herbicidal pre-emergence action (Table A10); type: in vivo, Kochia scoparia; details: application rate 320 g/ha; visual grading after ca. 3 weeks
How it was run: as §1

VERPE [11] = assay: Herbicidal pre-emergence action (Table A11); type: in vivo, Veronica persica; details: application rate 1280 g/ha; visual grading after ca. 3 weeks
How it was run: as §1

DIGSA [12] = assay: Herbicidal pre-emergence action (Table A12); type: in vivo, Digitaria sanguinalis; details: application rate 320 g/ha; visual grading after ca. 3 weeks
How it was run: as §1

ABUTH [13] = assay: Herbicidal post-emergence action (Table B1); type: in vivo, Abutilon theophrasti; details: treated at one-leaf stage, rated visually after about 3 weeks vs untreated controls (100% = plants have died, 0% = like control plants)
How it was run: (§2)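 Greenhouse pot test in sandy loam; weeds sown, treated post-emergence at one-leaf stage 2–3 weeks after sowing. Activity rated visually about 3 weeks later versus untreated controls, 100% = plants dead, 0% = like controls.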

ECHCG [14] = assay: Herbicidal post-emergence action (Table B3); type: in vivo, Echinochloa crus-galli; details: rated visually after about 3 weeks
How it was run: as §2

KCHSC [15] = assay: Herbicidal post-emergence action (Table B4); type: in vivo, Kochia scoparia; details: application rate 1280 g/ha; rated visually after about 3 weeks
Experimental: (§3) Seeds of mono- and dicotyledonous weed plants were placed in plastic pots in sandy loam soil (doubly sown with in each case one species of mono- or dicotyledonous weed plants per pot), covered with soil and cultivated in a greenhouse under controlled growth conditions. 2 to 3 weeks after sowing, the test plants were treated at the one-leaf stage. […] After the test plants had been kept in the greenhouse under optimum growth conditions for about 3 weeks, the activity of the preparations was rated visually in comparison to untreated controls. For example, 100% activity = the plants have died, 0% activity = like control plants.

LOLRI [16] = assay: Herbicidal post-emergence action (Table B5); type: in vivo, Lolium rigidum; details: rated visually after about 3 weeks
How it was run: as §2

MATIN [17] = assay: Herbicidal post-emergence action (Table B6); type: in vivo, Matricaria inodora; details: application rate 1280 g/ha; rated visually after about 3 weeks
How it was run: as §2

SETVI [18] = assay: Herbicidal post-emergence action (Table B8); type: in vivo, Setaria viridis
How it was run: as §2

VERPE [19] = assay: Herbicidal post-emergence action (Table B10); type: in vivo, Veronica persica
How it was run: as §2

DIGSA [20] = assay: Herbicidal post-emergence action (Table B12); type: in vivo, Digitaria sanguinalis
Experimental: as §3

ABUTH [21] = assay: Herbicidal pre-emergence action, section C (Table C1); type: in vivo, Abutilon theophrasti; details: application rate 320 g/ha; visual grading after ca. 3 weeks
Source text: (§5) Seeds of mono- and dicotyledonous weed plants and crop plants were sown, in plastic or organic planting pots, in sandy loam and covered with soil. The compounds according to the invention, formulated in the form of wettable powders (WP) or as emulsifiable concentrates (EC), were applied to the surface of the covering soil as aqueous suspension or emulsion, with the addition of 0.5% of an additive, at an application rate of 600 1 of water/ha (converted). Following treatment, the pots were placed in a greenhouse and kept under optimum growth conditions for the test plants.

ALOMY [22] = assay: Herbicidal pre-emergence action, section C (Table C2); type: in vivo, Alopecurus myosuroides; details: visual grading after ca. 3 weeks
DIGSA [23] = assay: Herbicidal pre-emergence action, section C (Table C5); type: in vivo, Digitaria sanguinalis; details: visual grading after ca. 3 weeks
ECHCG [24] = assay: Herbicidal pre-emergence action, section C (Table C6); type: in vivo, Echinochloa crus-galli; details: visual grading after ca. 3 weeks
LOLRI [25] = assay: Herbicidal pre-emergence action, section C (Table C7); type: in vivo, Lolium rigidum; details: application rate 80 g/ha; visual grading after ca. 3 weeks
MATIN [26] = assay: Herbicidal pre-emergence action, section C (Table C8); type: in vivo, Matricaria inodora; details: application rate 320 g/ha; visual grading after ca. 3 weeks
SETVI [27] = assay: Herbicidal pre-emergence action, section C (Table C10); type: in vivo, Setaria viridis; details: application rate 80 g/ha; visual grading after ca. 3 weeks
VERPE [28] = assay: Herbicidal pre-emergence action, section C (Table C11); type: in vivo, Veronica persica; details: application rate 80 g/ha; visual grading after ca. 3 weeks
Source text: as §5

VIOTR = assay: Herbicidal pre-emergence action, section C (Table C12); type: in vivo, Viola tricolor; details: application rate 80 g/ha; visual grading after ca. 3 weeks
ZEAMX [29] = assay: Pre-emergence effects on crop plants (Table D1); type: in vivo, Zea mays; details: crop plant; application rate 80 g/ha; visual grading after ca. 3 weeks
Source text: Seeds of mono- and dicotyledonous weed plants and crop plants were sown, in plastic or organic planting pots, in sandy loam and covered with soil. The compounds according to the invention, formulated in the form of wettable powders (WP) or as emulsifiable concentrates (EC), were applied to the surface of the covering soil as aqueous suspension or emulsion, with the addition of 0.5% of an additive, at an application rate of 600 1 of water/ha (converted).
Following treatment, the pots were placed in a greenhouse and kept under optimum growth conditions for the test plants.

ALOMY [30] = assay: Herbicidal post-emergence action, section E (Table E2); type: in vivo, Alopecurus myosuroides; details: application rate 320 g/ha; assessed visually after ca. 3 weeks
Source text: (§4) 2 to 3 weeks after sowing, the test plants were sprayed in the single-leaf stage.

ECHCG [31] = assay: Herbicidal post-emergence action, section E (Table E5); type: in vivo, Echinochloa crus-galli; details: application rate 320 g/ha; assessed visually after ca. 3 weeks
Source text: as §4

VERPE [32] = assay: Herbicidal post-emergence action, section E (Table E9); type: in vivo, Veronica persica; details: application rate 320 g/ha; assessed visually after ca. 3 weeks
Source text: as §4

ZEAMX [33] = assay: Post-emergence effects on crop plants (Table F1); type: in vivo, Zea mays; details: application rate 80 g/ha, crop plant ZEAMX
Source text: as §4

TRZAS = assay: Post-emergence effects on crop plants (Table F2); type: in vivo, Triticum aestivum; details: application rate 320 g/ha, crop plant TRZAS
Source text: as §4

ORYZA [34] = assay: Post-emergence effects on crop plants (Table F3); type: in vivo, Oryza sativa; details: application rate 320 g/ha, crop plant ORYZA
Source text: as §4

GLXMA = assay: Post-emergence effects on crop plants (Table F4); type: in vivo, Glycine max; details: application rate 80 g/ha, crop plant GLXMA
Source text: as §4

BRSNW = assay: Post-emergence effects on crop plants (Table F5); type: in vivo, Brassica napus; details: application rate 320 g/ha, crop plant BRSNW
Source text: as §4

ORYZA [35] = assay: Pre-emergence effects on crop plants (Table D3); details: crop plant; application rate 80 g/ha; visual grading after ca. 3 weeks
AMARE [36] = assay: Herbicidal pre-emergence action, section C (Table C3); type: in vivo, Amaranthus retroflexus; details: application rate 320 g/ha; visual grading after ca. 3 weeks
Source text: as §5

ALOMY [37] = assay: Herbicidal post-emergence action (Table B2); type: in vivo, Alopecurus myosuroides; details: application rate 1280 g/ha; rated visually after about 3 weeks
How it was run: as §2

POAAN [38] = assay: Herbicidal post-emergence action (Table B7); type: in vivo, Poa annua; details: application rate 320 g/ha
How it was run: as §2

STEME [39] = assay: Herbicidal post-emergence action (Table B9); type: in vivo, Stellaria media; details: application rate 320 g/ha
Experimental: as §3

AMARE [40] = assay: Herbicidal post-emergence action (Table B11); type: in vivo, Amaranthus retroflexus; details: application rate 1280 g/ha
How it was run: as §2

SMILES: O=C1N(Cc2cccc(F)c2F)CCC12CCCN(Cc1c(F)cccc1F)C2=O (racemic) [I-015]
- pre-emergence activity against ABUTH (ABUTH [1]): 90%
- pre-emergence activity against ECHCG (ECHCG [2]; application rate 320 g/ha): 100%
- pre-emergence activity against LOLRI (LOLRI [3]; application rate 320 g/ha): 100%
- pre-emergence activity against MATIN (MATIN [4]; application rate 320 g/ha): 90%
- pre-emergence activity against SETVI (SETVI [5]; application rate 1280 g/ha): 100%
- pre-emergence activity against STEME (STEME [6]): 90%
- pre-emergence activity against POAAN (POAAN [7]): 100%
- pre-emergence activity against AMARE (AMARE [8]; application rate 1280 g/ha): 90%
- pre-emergence activity against ALOMY (ALOMY [9]): 90%
- pre-emergence activity against KCHSC (KCHSC [10]): 90%
- pre-emergence activity against VERPE (VERPE [11]): 90%
- pre-emergence activity against DIGSA (DIGSA [12]): 100%
- post-emergence activity against ABUTH (ABUTH [13]; application rate 1280 g/ha): 90%
- post-emergence activity against ECHCG (ECHCG [14]; application rate 1280 g/ha): 90%
- post-emergence activity against KCHSC (KCHSC [15]): 90%
- post-emergence activity against LOLRI (LOLRI [16]; application rate 1280 g/ha): 90%
- post-emergence activity against MATIN (MATIN [17]): 90%
- post-emergence activity against SETVI (SETVI [18]; application rate 1280 g/ha): 90%
- post-emergence activity against VERPE (VERPE [19]; application rate 1280 g/ha): 90%
- post-emergence activity against DIGSA (DIGSA [20]; application rate 1280 g/ha): 90%
- pre-emergence activity against ABUTH (ABUTH [21]): 90%
- pre-emergence activity against ALOMY (ALOMY [22]; application rate 80 g/ha): 90%
- pre-emergence activity against DIGSA (DIGSA [23]; application rate 80 g/ha): 90%
- pre-emergence activity against ECHCG (ECHCG [24]; application rate 80 g/ha): 100%
- pre-emergence activity against LOLRI (LOLRI [25]): 100%
- pre-emergence activity against MATIN (MATIN [26]): 90%
- pre-emergence activity against SETVI (SETVI [27]): 90%
- pre-emergence activity against VERPE (VERPE [28]): 90%
- pre-emergence activity against VIOTR (VIOTR): 90%
- pre-emergence activity against ZEAMX (ZEAMX [29]): 0%
- post-emergence activity against ALOMY (ALOMY [30]): 80%
- post-emergence activity against ECHCG (ECHCG [31]): 90%
- post-emergence activity against VERPE (VERPE [32]): 80%
- post-emergence activity against ZEAMX (ZEAMX [33]): 0%
- post-emergence activity against TRZAS (TRZAS): 0%
- post-emergence activity against ORYZA (ORYZA [34]): 0%
- post-emergence activity against GLXMA (GLXMA): 20%
- post-emergence activity against BRSNW (BRSNW): 0%
- pre-emergence activity against ORYZA (ORYZA [35]): 0%

SMILES: O=C1N(Cc2cc(F)c(F)cc2F)CCCC12CCCN(Cc1cc(F)c(F)cc1F)C2=O (racemic) [I-213, 2,8-bis[(2,4,5-trifluorophenyl)methyl]-2,8-diazaspiro[5.5]undecane-1,7-dione]
- pre-emergence activity against ALOMY (ALOMY [22]; application rate 320 g/ha): 90%
- pre-emergence activity against AMARE (AMARE [36]): 90%
- pre-emergence activity against DIGSA (DIGSA [23]; application rate 320 g/ha): 80%
- pre-emergence activity against ECHCG (ECHCG [24]; application rate 320 g/ha): 100%

SMILES: O=C1N(Cc2cnc(Br)s2)CCCC12CCCN(Cc1cnc(Br)s1)C2=O (single isomer, unassigned; (+)) [I-205, (+)-2,8-bis[(2-bromo-1,3-thiazol-5-yl)methyl]-2,8-diazaspiro[5.5]undecane-1,7-dione]
- pre-emergence activity against ABUTH (ABUTH [1]): 90%
- pre-emergence activity against ECHCG (ECHCG [2]; application rate 1280 g/ha): 90%
- pest or weed control at 1280 g/ha (LOLRI [3]; Lolium rigidum, pre-emergence, 504 h, application rate 1280 g/ha, read-out: pre-emergence activity against LOLRI): 100%
- pre-emergence activity against MATIN (MATIN [4]; application rate 1280 g/ha): 90%
- pre-emergence activity against SETVI (SETVI [5]; application rate 320 g/ha): 100%
- pre-emergence activity against STEME (STEME [6]): 90%
- pest or weed control at 320 g/ha (POAAN [7]; Poa annua, pre-emergence, 504 h, read-out: pre-emergence activity against POAAN): 100%
- pre-emergence activity against AMARE (AMARE [8]; application rate 320 g/ha): 90%
- pre-emergence activity against KCHSC (KCHSC [10]): 100%
- pre-emergence activity against VERPE (VERPE [11]): 100%
- pre-emergence activity against DIGSA (DIGSA [12]): 90%
- post-emergence activity against ABUTH (ABUTH [13]; application rate 320 g/ha): 90%
- post-emergence activity against ALOMY (ALOMY [37]): 90%
- pest or weed control at 320 g/ha (ECHCG [14]; Echinochloa crus-galli, post-emergence, 504 h, application rate 320 g/ha, read-out: post-emergence activity against ECHCG): 90%
- post-emergence activity against KCHSC (KCHSC [15]): 90%
- post-emergence activity against LOLRI (LOLRI [16]; application rate 320 g/ha): 90%
- post-emergence activity against POAAN (POAAN [38]): 90%
- post-emergence activity against SETVI (SETVI [18]; application rate 320 g/ha): 90%
- post-emergence activity against STEME (STEME [39]): 90%
- post-emergence activity against VERPE (VERPE [19]; application rate 320 g/ha): 90%
- post-emergence activity against AMARE (AMARE [40]): 90%
- post-emergence activity against DIGSA (DIGSA [20]; application rate 320 g/ha): 90%
